Measured values reported in patent US6420387B1, “Farnesyl protein transferase inhibiting (imidazol-5-yl) methyl-2-quinolinone derivatives” (Janssen Pharmaceutica N.V., priority 1995, dated 2002).
Structures can show the parent of a compound that is named as a salt.

Legend:
[1] = biological target: T1, Human farnesyl protein transferase (Homo sapiens, UniProt P49354+P49356); experiment: In vitro assay for inhibition of farnesyl protein transferase (scintillation proximity assay); assay type: biochemical; conditions: concentration producing 50% inhibition of enzyme activity; [3H]-farnesylpyrophosphate and biotinylated lamin B peptide substrates, 60 min at 37° C.
T1 construct: grown as monolayer cell cultures were used as a source of human enzyme; endogenous in cells; host or cells: KHOS (Kirsten virus transformed human osteosarcoma) cells, grown as solid tumors in nude mice or as monolayer cultures; 30-50% ammonium sulfate fraction, then Q Fast Flow Sepharose
Method: Human farnesyl protein transferase was prepared essentially as described (Y. Reiss et al., Methods: A Companion to Methods in Enzymology vol 1, 241-245, 1990). Kirsten virus transformed human osteosarcoma (KHOS) cells (American Type Culture Collection, Rockville, Md., USA) grown as solid tumors in nude mice or grown as monolayer cell cultures were used as a source of human enzyme. Briefly, cells or tumors were homogenized in buffer containing 50 mM Tris, 1 mM EDTA, 1 mM EGTA and 0.2 mM phenylmethylsulfonylfluoride (pH 7.5). The homogenates were centrifuged 28,000×g for 60 min and the supernatants collected. A 30-50% ammonium sulfate fraction was prepared, and the resulting precipitate was resuspended in a small (10 to 20 ml) volume of dialysis buffer containing 20 mM Tris 1 mM dithiothreitol and 20 μM ZnCl2. The ammonium sulfate fraction was dialyzed overnight against two changes of the same buffer. The dialyzed material was applied to a 10×1 cm Q Fast Flow Sepharose (Pharmacia LKB Biotechnology Inc., Piscataway, N.J., USA) which had been preequilibrated with 100 ml of dialysis buffer supplemented with 0.05 M NaCl. The column was washed with an additional 50 ml of dialysis buffer plus 0.05 M NaCl followed by a gradient from 0.05 M to 0.25 M NaCl prepared in dialysis buffer. The enzyme activity was eluted with a linear gradient of 0.25 to 1.0 M NaCl prepared in the dialysis buffer. Fractions containing 4 to 5 ml volumes of column eluate were collected and analyzed for farnesyl protein transferase activity. Fractions with enzyme activity were pooled and supplemented with 100 μM ZnCl2. Enzyme samples were stored frozen at −70° C.
The activity of farnesyl protein transferase was measured using the Farnesyl Transferase [^3H] Scintillation Proximity Assay (Amersham International plc., England) under the conditions specified by the manufacturer. To assay for inhibitors of the enzyme, 0.20 μCi of the [^3H]-famesylpyrophosphate substrate and the biotinylated lamin B peptide substrate (biotin-YRASNRSCAIM) were mixed with test compounds in a reaction buffer consisting of 50 mM HEPES, 30 mM MgCl2, 20 mM KCl, 5 mM dithiothreitol, 0.01% Triton X-100. Test compounds were delivered in a 10 μl volume of dimethylsulfoxide (DMSO) to achieve concentrations of 1 and 10 μg/ml in a final volume of 100 μl. The reaction mixture was warmed to 37° C. The enzyme reaction was started by adding 20 μl of diluted human farnesyl protein transferase. Sufficient enzyme preparation was added to produce between 4000 to 15000 cpm of reaction product during the 60 min of reaction incubation at 37° C. Reactions were terminated by the addition of STOP/scintillation proximity bead reagent (Amersham). The reaction product [^3H]-farnesyl-(Cys)-biotin lamin B peptide was captured on the streptavidin linked scintillation proximity bead. The amount of [^3H]-farnesyl-(Cys)-biotin lamin B peptide synthesized in the presence or absence of test compounds was quantified as cpm by counting on a Wallac Model 1480 Microbeta Liquid Scintillation Counter. The cpm of product was considered to be farnesyl protein transferase activity. The protein farnesyl transferase activity observed in the presence of test compound was normalized to farnesyl transferase activity in the presence of 10% DMSO and expressed as per cent inhibition. […] The effects of test compounds in these studies were calculated as IC50 (concentration of test compound producing 50% inhibition of enzyme activity) using the LGICV50 computer program written by the Science Information Division of R. W. Johnson Pharmaceutical Research Institute (Spring House, Pa., USA) on a VAX computer.

[2] = test system: NIH 3T3 cells transformed by the T24 activated human H-ras gene; experiment: Ras-transformed cell phenotype reversion assay; assay type: cell-based, mouse; conditions: NIH3T3; cell counts after 72 hours proliferation, corrected for initial input of 200,000 cells
Text: Insertion of activated oncogenes such as the mutant ras gene into mouse NIH 3T3 cells converts the cells to a transformed phenotype. The cells become tumorigenic, display anchorage independent growth in semi-solid medium and lose contact inhibition. Loss of contact inhibition produces cell cultures which no longer form uniform monolayers. Rather, the cells pile up into multicellular nodules and grow to very high saturation densities in plastic tissue culture dishes. Agents such as protein farnesyl transferase inhibitors which revert the ras transformed phenotype restore the uniform monolayer growth pattern to cells in culture. This reversion is easily monitored by counting the number of cells in tissue culture plates. Transformed cells will achieve higher cell numbers than cells which have reverted to an untransformed phenotype. Compounds which revert the transformed phenotype should produce antitumor effects in tumors bearing ras gene mutations.
Compounds are screened in tissue culture in NIH 3T3 cells transformed by the T24 activated human H-ras gene. Cells are seeded at an initial density of 200,000 cells per well (9.6 cm^2 surface area) in six-well cluster tissue culture plates. Test compounds are immediately added to 3.0 ml cell growth medium in a 3.0 μl volume of DMSO, with a final concentration of DMSO in the cell growth medium of 0.1%. The test compounds are run at concentrations of 5, 10, 50, 100, and 500 nM along with a DMSO treated vehicle control. (In case a high activity is observed at 5 nM, the test compound is tested at even lower concentrations.) The cells are allowed to proliferate for 72 hours. Then the cells are detached in 1.0 ml trypsin-EDTA cell dissociation medium and counted on a Coulter particle counter.
Cell numbers expressed as cells per well are measured using a Coulter Particle Counter.
All cell counts were corrected for the initial cell input density by subtracting 200,000.
Control cell counts=[cell counts from cells incubated with DMSO vehicle −200,000].
Test compound cell counts=[cell counts from cells incubated with test compound −200,000]. [formula]
IC50 (i.e. the test compound concentration required to inhibit enzyme activity by 50%) is calculated if sufficient data are available, summarized in table 11.

[3] = test system: T24 activated human H-ras gene transformed NIH 3T3 fibroblast cells (T24 cells); experiment: Farnesyl protein transferase inhibitor secondary tumor model; assay type: in vivo; conditions: nude mice with subcutaneous T24 cell tumors, 15 days of treatment
Text: The enzyme farnesyl protein transferase catalyzes the covalent attachment of a farnesyl moiety derived from farnesyl pyrophosphate to the oncogene product p21^ras. This directs p21^ras to attach to plasma membranes. Once attached to plasma membranes, mutant or oncogenic forms of p21^ras will provide a signal for the transformation and uncontrolled growth of malignant tumor cells. Therefore, inhibitors of protein farnesyl transferase will prevent the membrane attachment of p21^ras and inhibit growth of ras-transformed tumors.
Nude mice are inoculated with 1×10^6 of T24 activated human H-ras gene transformed NIH 3T3 fibroblast cells (T24 cells), subcutaneously in the inguinal region. After three days to allow tumors to become established, treatment with test compounds is begun via the oral route. The test compounds are dissolved in a 20% β-cyclodextrin in 0.1 N HCl solution and administered orally as 0.1 ml of compound solution per 10 g mouse body weight. Routinely used doses are 6.25, 12.5 and 25 mg/kg. Body weights and tumor sizes are monitored during the ensuing 15 days of treatment. At the end of treatment, animals are sacrificed and tumors are weighed.
The “mean vehicle treated tumor weight” is defined as the mean tumor weight from 10 to 15 mice […].
The “mean tumor weight” is defined as the mean tumor weight from 10 to 15 mice […]. [formula]

| SMILES | melting point | IC50 [1] | IC50 [2] | % reduction final tumor weight at a dose of 25 mg/kg bid, po [3] |
| --- | --- | --- | --- | --- |
| Cn1cncc1C(c1ccc(Cl)cc1)c1ccc2c(c1)c(-c1ccccc1)cc(=O)n2C (racemic) [Compound 2, (±)-6-[(4chlorophenyl)(1-methyl-1H-imidazol-5-yl)methyl]-1-methyl-4-phenyl-2(1H)-quinolinone] | 96.8 °C | 8 nM | – | – |
| Cn1cncc1C(O)(c1ccc(Cl)cc1)c1ccc2c(c1)c(-c1cccc(Cl)c1)cc(=O)n2C (racemic) [Compound 3, (±)-4-(3-chlorophenyl)-6-[(4-chlorophenyl)hydroxy(1-methyl-1H-imidazol-5-yl)methyl]-1-methyl-2(1H)-quinolinone] | 233.6 °C | 1.7 nM | – | – |
| Cn1cncc1C(C)(c1ccc(Cl)cc1)c1ccc2c(c1)c(-c1cccc(Cl)c1)cc(=O)n2C (racemic) [Compound 12, (±)-4-(3-chlorophenyl)-6-[1-(4-chlorophenyl)-1-(1-methyl-1H-imidazol-5-yl)ethyl]-1-methyl-2(1H)-quinolinone.ethanedioate (1:1)] | 203.9 °C | 4.2 nM | 66 nM | – |
| Cn1cncc1C(N)(c1ccc(Cl)cc1)c1ccc2c(c1)c(-c1cccc(Cl)c1)cc(=O)n2C (racemic) [Compound 14, (±)-6-[amino(4-chlorophenyl)(1-methyl-1H-imidazol-5-yl)methyl]-4-(3-chlorophenyl)-1-methyl-2(1H)-quinolinone] | – | – | 3.8 nM | 66% |
| CC(=O)NC(c1ccc(Cl)cc1)(c1ccc2c(c1)c(-c1cccc(Cl)c1)cc(=O)n2C)c1cncn1C.O=C(O)C(=O)O (racemic) [Compound 56, (±)-N-[(4-chlorophenyl)[4-(3-chlorophenyl)-1,2-dihydro-1-methyl-2-oxo-6-quinolinyl](1-methyl-1H-imidazol-5-yl)methyl]acetamide ethanedioate (1:1)] | – | – | 23 nM | 42% |
| CCOc1cccc(-c2cc(=O)n(C)c3ccc(C(O)(c4ccc(Cl)cc4)c4cncn4C)cc23)c1 (stereo not shown) [Compound 34, 6-[(4-chlorophenyl)hydroxy(1-methyl-1H-imidazol-5-yl)methyl]-4-(3-ethoxyphenyl)-1-methyl-2(1H)-quinolinone] | – | 1.6 nM | 3 nM | 56% |

Now from value to compound, other results behind:

| melting point | IC50 [1] | SMILES | IC50 [2] | % reduction final tumor weight at a dose of 25 mg/kg bid, po [3] |
| --- | --- | --- | --- | --- |
| 154.6 °C | – | COC(c1ccc(Cl)cc1)(c1ccc2c(c1)c(-c1cccc(Cl)c1)cc(=O)n2C)c1cncn1C (racemic) (hydrate or solvate) [Compound 4, (±)-4-(3-chlorophenyl)-6-[(4-chlorophenyl)methoxy(1-methyl-1H-imidazol-5-yl)methyl]-1-methyl-2(1H)-quinolinone ethanedioate(1:1).dihydrate] | – | – |
| 157.4 °C | – | Cn1cncc1C(c1ccc(Cl)cc1)c1ccc2c(c1)c(-c1cccc(Cl)c1)cc(=O)n2C (racemic) (hydrate or solvate) [Compound 5, (±)-4-(3-chlorophenyl)-6-[(4-chlorophenyl)(1-methyl-1H-imidazol-5-yl)methyl]-1-methyl-2(1H)-quinolinone ethanedioate(1:1).mono-hydrate] | – | – |
| 174.6 °C | – | CCCCn1cncc1C(O)(c1ccc(Cl)cc1)c1ccc2c(c1)c(-c1cccc(Cl)c1)cc(=O)n2C (racemic) [Compound 9, (±)-4-(3-chlorophenyl)-6-[(1-butyl-1H-imidazol-5-yl)(4-chlorophenyl)hydroxymethyl]-1-methyl-2(1H)-quinolinone] | – | – |
| 151.3 °C | 2.2 nM | Cn1cncc1C(CC#N)(c1ccc(Cl)cc1)c1ccc2c(c1)c(-c1cccc(Cl)c1)cc(=O)n2C (racemic) [Compound 25, (±)-4-(3-chlorophenyl)-β-(4-chlorophenyl)-1,2-dihydro-1-methyl-β-(1-methyl-1H-imidazol-5-yl)-2-oxo-6-quinolinepropanenitrile] | 86 nM | – |
| 149.9 °C | – | Cn1cnc(C(c2ccc(Cl)cc2)c2ccc3c(c2)c(-c2ccccc2)cc(=O)n3C)c1 (racemic) [Compound 44, (±)-6-[(4-chlorophenyl)(1-methyl-1H-imidazol-4-yl)methyl]-1-methyl-4-phenyl-2(1H)-quinolinone] | – | – |
| – | 0.39 nM | CCOc1cccc(-c2cc(=O)n(C)c3ccc(C(c4ccc(Cl)cc4)c4cncn4C)cc23)c1 (stereo not shown) [Compound 35, 6-[(4-chlorophenyl)(1-methyl-1H-imidazol-5-yl)methyl]-4-(3-ethoxyphenyl)-1-methyl-2(1H)-quinolinone monohydrochloride.monohydrate] | 3.4 nM | 39% |
| – | 6.4 nM | CCc1cccc(-c2cc(=O)n(C)c3ccc(C(N)(c4ccc(Cl)cc4)c4cncn4C)cc23)c1 (stereo not shown) [Compound 98] | 15 nM | – |
| – | 0.52 nM | CCCc1cccc(-c2cc(=O)n(C)c3ccc(C(N)(c4ccc(Cl)cc4)c4cncn4C)cc23)c1 (stereo not shown) [Compound 100] | 11 nM | – |
